Holding throughout (type): in vivo, C57BL/6 mice
Data set [1] can be described thus: Plasma pharmacokinetics after intravenous injection. Particulars: 20 μg free. The procedure:
To examine the pharmacokinetics of STING agonist in mouse plasma, naïve C57BL/6 mice were injected intravenously with 20 μg of free 3-3 cAIMPdFSH, or 0.1 μg, 0.3 μg, 0.6 μg 3-3 cAIMPdFSH loaded in PTGFRN-overexpressing exosomes. One, five, ten, and thirty minutes injection, blood was taken, and plasma were prepared. The concentration of 3-3 cAIMPdFSH was measured by LC-MS/MS, as described in Example 1.

The subject of data set [2] is B16F10 lung metastases. The data set can be described thus: B16F10 lung metastases after intratumoral treatment of the subcutaneous tumor. Particulars: 20 μg intratumoral. An excerpt:
Activation of the STING pathway promotes antigen presentation and induces a durable T-cell response, as shown in Examples 11 and 12. Thus, the immune memory response induced by EXOSTING™ may be sufficient to prevent tumor metastasis after a local administration in a primary tumor. To test this hypothesis, exosomes purified from HEK293SF cells overexpressing PTGFRN were loaded with the cyclic dinucleotide 3-3 cAIMPdFSH as described in Example 1. C57BL/6 mice were inoculated subcutaneously with 1×10^6 B16F10 melanoma cells on day zero and challenged with an additional tail vein injection of 1×10^5 B16F10 melanoma cells to seed lung metastases (n=8 mice per group). Five, eight, and eleven days post-inoculation the mice were injected intratumorally at the subcutaneous tumor with PBS, 20 μg 3-3 cAIMPdFSH, 120 ng 3-3 cAIMPdFSH, or either 120 ng, 12 ng, or 1.2 ng 3-3 cAIMPdFSH loaded in PTGFRN-overexpressing exosomes (Exo STING Agonist). […] Lungs from all mice were harvested, imaged, and counted for metastases. […] As little as 12 ng of Exo STING Agonist prevented lung metastasis to the same extent as 20 μg STING Agonist (FIGS. 46B and 47).

The test system of data set [3] is B16F10 murine melanoma cells. The data set can be described thus: B16F10 melanoma tumor growth, intratumoral injection. Particulars: for tumor growth compared to PBS: day 25. The procedure: To test this hypothesis, C57BL/6 mice were inoculated subcutaneously with 5×10^5 B16F10 murine melanoma cells (n=5 mice per group). Five, eight, and eleven days post-inoculation the mice were injected intratumorally with PBS, 20 μg ML RR-S2, 0.2 μg ML RR-S2, or 0.2 μg ML RR-S2 loaded in PTGFRN-overexpressing exosomes Tumor volumes were measured daily until day 39, and animals were sacrificed when tumor volume reached 2000 mm^3.

In data set [4] the test system is OVA-reactive splenic T-cells. The data set can be described thus: OVA-specific memory T-cell response in E.G7-OVA model. How it is done:
STING pathway agonism in dendritic cells enhances antigen presentation, IFNβ production, and recruits CD8+ memory T-cells to elicit a durable adaptive immune response. To determine whether Exo STING could induce a memory T-cell response to a defined antigen, an antigen-specific T-cell response study was carried out using purified ovalbumin (OVA). C57BL/6 mice were injected intraperitoneally with 200 μg OVA mixed with either PBS, 20 μg ML RR-S2, 0.2 μg ML RR-S2, or 0.2 μg ML RR-S2 loaded in PTGFRN-overexpressing exosomes (n=4-10 mice per group). […] Isolated lymphocytes were analyzed by flow cytometry by measuring binding to immobilized tetrameric MHC class I bound to the OVA peptide SIINFEKL and phycoerythrin (PE) (iTAg Tetramer/PE—H-2 OVA; MBL®, Code #T03000). OVA-reactive memory T-cells were quantified by gating on PE, CD44, and CD8 positivity.
To test this hypothesis, C57BL/6 mice were inoculated subcutaneously with 1×10^6 E.G7-OVA cells (ATCC®; CRL-2113™), a murine T-cell lymphoma cell line engineered to stably express OVA and allow for modeling antigen-specific T-cell responses in mice (n=5 mice per group). […] Splenic T-cells from all groups were isolated and measured for OVA-specific reactivity as described in Example 11.

With `Nc1ncnc2c1ncn2[C@@H]1O[C@@H]2COP(=O)(S)O[C@H]3[C@@H](F)[C@H](n4cnc5c(=O)[nH]cnc54)O[C@@H]3COP(O)(=S)O[C@H]2[C@H]1F` (some centres unmarked) [3-3 cAIMPdFSH, 3′3′-cAIMPdFSH], in data set [1], the half-life in plasma was 1.2 min. Also, in data set [2], the “lung lesions by histology” value is listed as “significant amount of lung lesions inside of lung” and the “lung metastases compared to PBS” value is “dramatically reduced”.
For `Nc1ncnc2c1ncn2[C@@H]1O[C@@H]2COP(O)(=S)O[C@@H]3C(O)[C@@H](COP(O)(=S)O[C@H]2[C@H]1O)O[C@H]3n1cnc2c(N)ncnc21` (some centres unmarked) [ML RR-S2 CDA], the “tumor growth compared to PBS” value is on record as “moderately potentiated” in data set [3] (0.2 μg intratumoral days 5, 8, 11) and “almost completely eliminated” in data set [3] (20 μg intratumoral days 5, 8, 11). Besides, the “complete response (undetectable tumors at the site of inoculation)” value in data set [3] (20 μg intratumoral) is recorded as “three out of five”. Further, the figures for the “memory T-cell response (OVA-specific)” value in data set [4] (0.2 μg intratumoral) and in data set [4] (20 μg intratumoral) were “modest memory T-cell response” and “potent memory T-cell response”, respectively.

Source of the values: patent publication US20210322327A1, “EXTRACELLULAR VESICLES COMPRISING STING-AGONIST” (Codiak BioSciences, Inc., priority 2018, published 2021).
